We go through 3 compounds from PubChem BioAssay (NCI).

Test systems include UACC-257 melanoma; RXF 393 renal; MOLT-4 leukemia; HS 578T breast; RPMI-8226 leukemia; A498 renal; PC-3 prostate; MDA-MB-435; TK-10 renal; HCT-15 colon.
Test in all cases: NCI anticancer screen, dose series, 48 h

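Step 1: Grow cells in 96-well plates. Step 2: Expose to compound for 48 hours at 5 concentrations. Step 3: Interpolate endpoints linearly; if unreached, use highest concentration. The concentration for 50% growth inhibition is given as GI50. At the TGI there is no net growth.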

`C=C(C)C(=O)Nc1ccc(-c2c(-c3ccc(Oc4nccc(C)n4)c(F)c3)c3c(N)ncnc3n2C)cc1`: the GI50 in the assay on UACC-257 melanoma is 9.27 µM; in the assay on RXF 393 renal, 0.0946 µM; in the assay on MOLT-4 leukemia, 2.78 µM; in the assay on HS 578T breast it was 1.09 µM; in the assay with RPMI-8226 leukemia, 2.74 µM; in the assay on A498 renal it was 1.72 µM. In addition, the GI50 is 6.78 µM in the assay on PC-3 prostate, 7.19 µM in the assay on MDA-MB-435, 4.98 µM with TK-10 renal and 3.11 µM with HCT-15 colon. Besides, the TGI in the assay with UACC-257 melanoma was 23.6 µM; in the assay on RXF 393 renal, 0.984 µM; with MOLT-4 leukemia, above 100 µM; in the assay on HS 578T breast it was 4.1 µM; in the assay on RPMI-8226 leukemia, 17.3 µM; in the assay on A498 renal it was 9.88 µM. Besides, the TGI with PC-3 prostate was determined as 67.5 µM; with MDA-MB-435, 21.3 µM; with TK-10 renal, 30 µM; in the assay on HCT-15 colon, 13.5 µM.
For `COc1ccc(/C=C/c2ccnc3ccccc23)cc1OC`, the TGI in the assay with UACC-257 melanoma amounted to 37.6 µM; with RXF 393 renal, 27.2 µM; in the assay on MOLT-4 leukemia it was 45.1 µM; in the assay with HS 578T breast, 81.6 µM; with RPMI-8226 leukemia it was 57.1 µM; with A498 renal it was 23.6 µM. Also, the TGI with PC-3 prostate was found to be 36.4 µM; with MDA-MB-435, 28.6 µM; in the assay on TK-10 renal it was 28.9 µM; with HCT-15 colon, 30.4 µM.
On to `COC(=O)CC1=C(C)/C(=C/c2[nH]c(-c3ccc[nH]3)cc2OC)N=C1C`, for which the GI50 in the assay with UACC-257 melanoma was 0.282 µM; in the assay with RXF 393 renal, 0.0611 µM; in the assay with MOLT-4 leukemia, 0.17 µM; in the assay with HS 578T breast, 0.423 µM; in the assay with RPMI-8226 leukemia it was 0.0449 µM; in the assay on A498 renal it was 1.02 µM. Further, the GI50 in the assay on PC-3 prostate is 0.21 µM; with MDA-MB-435, 0.311 µM; with TK-10 renal, 0.214 µM; in the assay with HCT-15 colon, 0.0992 µM. Further, the TGI is 1.12 µM in the assay on UACC-257 melanoma; 1.08 µM with RXF 393 renal; 3.48 µM with MOLT-4 leukemia; 2.14 µM in the assay on HS 578T breast; 0.499 µM in the assay on RPMI-8226 leukemia; 5.39 µM in the assay on A498 renal. Besides, the TGI with PC-3 prostate amounted to 11.2 µM; with MDA-MB-435, 1.95 µM; with TK-10 renal, 3.41 µM; with HCT-15 colon, 0.894 µM.
